Experimental data published in PMC10045663, “Synthesis, In Vitro Biological Evaluation of Antiproliferative and Neuroprotective Effects and In Silico Studies of Novel 16E-Arylidene-5α,6α-epoxyepiandrosterone Derivatives” (Biomedicines, 2023).

Experiments:
N27 cells [1] = assay: N27 cell viability after 24 h (MTT), substance alone; assay type: cell-based, rat
Protocol: The immortalized rat mesencephalic dopaminergic cell line (N27 cells; a kind gift from Dr. Yoon-Seong Kim, Burnett School of Biomedical Sciences, University of Central Florida) was grown in Roswell Park Memorial Institute (RPMI) 1640 medium (Sigma-Aldrich) containing 2 g/L sodium bicarbonate, 10% fetal bovine serum (FBS; Millipore), and 1 mL/L of penicillin/streptomycin (GIBCO) in a humidified atmosphere of 5% CO2 at 37 °C. Cells were plated at a density of 0.31 × 10^5 cells per cm^2 in 96-well culture plates. […] To assess cell viability, MTT reduction was performed as previously described (Section 2.3) with some modifications. Briefly, after 24 h of cell treatments, 0.5 mg/mL of MTT was added to cells for 4 h at 37 °C. Then, the resultant precipitate was dissolved in 10% SDS and quantified at a wavelength of 570 nm.

[2] = system: PC-3 cells (androgen-independent prostatic cancer); assay: MTT cell proliferation assay, PC-3 cells; assay type: cell-based; conditions: 72 h; for IC50: MTT, tumoral cells, read-out: Estimated IC50, PC-3; for decrease on cell proliferation relative to the control: PC-3, 50 µM
Protocol: (§1) LNCaP, PC-3, MCF-7, PNT1A, N27, and NHDF cells were obtained from the American Type Culture Collection (ATCC; Manassas, VA, USA) and were cultured in 75 cm^2 culture flasks at 37 °C in a humidified air incubator with 5% CO2. LNCaP, PC-3, PNT1A, and N27 cells, respectively, were cultured in RPMI 1640 medium (Sigma-Aldrich, Inc. St. Louis, MO, USA) with 10% fetal bovine serum (FBS; Sigma-Aldrich, Inc. St. Louis, MO, USA) and 1% of the antibiotic mixture of 10,000 U/mL penicillin G and […] streptomycin (Sp, Sigma-Aldrich, Inc. St. Louis, MO, USA). MCF-7 cells were cultured in DMEM medium (Sigma-Aldrich, Inc. St. Louis, MO, USA) supplemented with 10% fetal bovine serum (FBS; Sigma-Aldrich, Inc. St. Louis, MO, USA) and 1% antibiotic/antimycotic (10,000 U/mL penicillin G, […] streptomycin, and 25 µg/mL amphotericin B: Ab, Sigma-Aldrich, Inc. St. Louis, MO, USA). Finally, NHDF cells were cultured in RPMI 1640 medium supplemented with 10% FBS, 2 mM L-glutamine, 10 mM HEPES, 1 mM sodium pyruvate, and 1% of the antibiotic/antimycotic Ab, and these cells were used in passages 10th to 14th. For all cell types, the medium was renewed every 2 days until cells nearly reached the confluence state. When cells reach approximately 90–95% confluence, they are gently detached by trypsinization (trypsin-EDTA solution: 0.125 g/L of trypsin and 0.02 g/L of EDTA). Before each experiment, viable cells were counted in a Neubauer chamber by a trypan-blue exclusion assay and adequately diluted in the appropriate complete cell culture medium.
(§2) All tested compounds were dissolved in dimethyl sulfoxide (DMSO; Sigma-Aldrich, Inc. St. Louis, MO, USA) at a concentration of 10 mM and stored at 4 °C. From the mother-solutions, the diluted solutions of the compounds, in different concentrations, were prepared in the respective complete culture medium before each experiment.
(§3) After reaching a confluence state, cells were trypsinized and counted by the trypan-blue exclusion assay and then seeded with an initial density of 2 × 10^4 cells/mL in 96-well culture plates (Nunc, Apogent, Denmark) and left to adhere and grow for 48 h. Subsequently, the medium was removed, and the cells were treated with compound solutions (10 and 50 µM for preliminary studies and 0.01, 0.1, 1, 10, 50, and 100 µM for concentration-response studies) in complete culture medium for 72 h. 5-Fluorouracil (5-FU) was used as a positive control, and untreated cells were used as the negative control. Compounds leading to cell proliferation relative to control clearly below 50%, at 10 µM, or clearly below 25%, at 50 µM, in the screening studies were selected to concentration-response studies in tumoral cell lines. Each experiment was performed in quadruplicate and independently at least two times. The in vitro antiproliferative effects were evaluated by the MTT assay (Sigma-Aldrich, Inc. St. Louis, MO, USA). After the incubation period, the medium was removed, and 100 µL of phosphate buffer saline (PBS, NaCl 137 mM; KCl 2.7 mM; Na2HPO4 10 mM; and KH2PO4 1.8 mM in deionized water with a pH adjusted to 7.4) were used to wash the cells. Then, 100 µL of the MTT solution (5 mg/mL) was prepared in the appropriate serum-free medium and added to each well, followed by incubation for 4 h at 37 °C. Hereafter, the MTT containing medium was removed, and the formazan crystals were dissolved in DMSO. Then, the absorbance was measured at 570 nm using a xMarkTM microplate spectrophotometer from BIO-RAD Laboratories. Cell viability values were expressed as percentages relative to the negative control.

[3] = system: N27 (rat dopaminergic neuronal cells); assay: MTT cell proliferation assay, N27 cells; assay type: cell-based; conditions: 72 h, non-tumoral cells, read-out: Estimated IC50, N27
Protocol: as §1, §2, §3

[4] = system: PNT1A (normal prostate cells); assay: MTT cell proliferation assay, PNT1A cells; assay type: cell-based; conditions: 72 h, non-tumoral cells, read-out: Estimated IC50, PNT1A
Protocol: as §1, §2, §3

[5] = system: NHDF cells (normal human dermal fibroblasts); assay: MTT cell proliferation assay, NHDF cells; assay type: cell-based; conditions: 72 h, non-tumoral cells, read-out: Estimated IC50, NHDF
Protocol: as §1, §2, §3

[6] = system: MCF-7 cells (estrogen-responsive breast cancer cells); assay: MTT cell proliferation assay, MCF-7 cells; assay type: cell-based; conditions: 72 h; for IC50: MTT, tumoral cells, read-out: Estimated IC50, MCF-7
Protocol: as §1, §2, §3

[7] = system: all cell lines (NHDF, PNT1A, N27, LNCaP, PC-3, MCF-7); assay: MTT preliminary screening, all cell lines taken together; assay type: cell-based; conditions: 50 µM, 72 h
Protocol: as §1, §2, §3

[8] = system: LNCaP cells (androgen-dependent prostatic cancer); assay: MTT cell proliferation assay, LNCaP cells; assay type: cell-based; conditions: 72 h; for effect on LNCaP cell proliferation: 10 µM; for decrease in LNCaP cell proliferation: 50 µM; for IC50: MTT, tumoral cells, read-out: Estimated IC50, LNCaP
Protocol: as §1, §2, §3

N27 cells [9] = assay: Neuroprotection against 6-OHDA-induced toxicity (MTT); assay type: cell-based, rat; conditions: 10 and 50 µM together with 50 µM 6-OHDA, 24 h
Protocol: The immortalized rat mesencephalic dopaminergic cell line (N27 cells; a kind gift from Dr. Yoon-Seong Kim, Burnett School of Biomedical Sciences, University of Central Florida) was grown in Roswell Park Memorial Institute (RPMI) 1640 medium (Sigma-Aldrich) containing 2 g/L sodium bicarbonate, 10% fetal bovine serum (FBS; Millipore), and 1 mL/L of penicillin/streptomycin (GIBCO) in a humidified atmosphere of 5% CO2 at 37 °C. Cells were plated at a density of 0.31 × 10^5 cells per cm^2 in 96-well culture plates. In the MTT assay, N27 cells were incubated in the presence of several compounds with 50 μM of 6-OHDA. To assess cell viability, MTT reduction was performed as previously described (Section 2.3) with some modifications. Briefly, after 24 h of cell treatments, 0.5 mg/mL of MTT was added to cells for 4 h at 37 °C. Then, the resultant precipitate was dissolved in 10% SDS and quantified at a wavelength of 570 nm.

Compound | reduction in cell viability compared to the control (N27 cells [1]; 50 μM) [%] | IC50 [2] [µM] | IC50 [3] [µM] | IC50 [4] [µM] | IC50 [5] [µM] | IC50 [6] [µM] | relative cell proliferation [7] [%] | effect on LNCaP cell proliferation [8] | decrease in LNCaP cell proliferation [8] | IC50 [8] [µM] | decrease on cell proliferation relative to the control [2] | effect on N27 cell viability (N27 cells [1]; 10 µM alone) | protection against 6-OHDA-induced neurotoxicity (N27 cells [9]) | cell proliferation relative to the control ([6]; MCF-7, 50 µM) [%]
NCCc1cc(O)c(O)cc1O [Compound 6-OHDA, 6-hydroxydopamine, reference compound] | ~50 |  |  |  |  |  |  |  |  |  |  |  |  | 
COc1ccc(C=C2CC3C4CC5OC56CC(O)CCC6(C)C4CCC3(C)C2=O)cc1 (stereo not drawn) [Compound 16, (E)-16-(4-Metoxybenzylidene)-3-hydroxy-5α ,6α -epoxy-10,13-dimethyl-1,3,4,7,8,9,10,11,12,13,15,16-dodecahydro-2H-cyclopenta[α ]phenanthren-17(14H)-one] |  | 20.1 | 33.2 | 54.5 | 39.3 |  |  |  |  |  |  |  |  | 
CC12CCC3C(CC4OC45CC(O)CCC35C)C1CC(=Cc1cccs1)C2=O (stereo not drawn) [Compound 18, (E)-16-(Thiophen-2-ylmethylene)-3-hydroxy-5α ,6α -epoxy-10,13-dimethyl-1,3,4,7,8,9,10,11,12,13,15,16-dodecahydro-2H-cyclopenta[α ]phenanthren-17(14H)-one] |  | 37.6 | 12.6 | 29.6 | 29.7 |  |  |  |  |  |  |  |  | 
Cc1ccc(/C=C2\C[C@H]3[C@@H]4C[C@@H]5O[C@@]56CC(O)CC[C@]6(C)[C@H]4CC[C@]3(C)C2=O)o1 (stereo partly drawn) [Compound 21, (E)-16-[(5-Methylfuran-2-yl)methylene]-3-hydroxy-5α ,6α -epoxy-10,13-dimethyl-1,3,4,7,8,9,10,11,12,13,15,16-dodecahydro-2H-cyclopenta[α ]phenanthren-17(14H)-one] |  |  | 13.2 | 46.3 | 23.4 |  |  |  |  |  |  |  |  | 
Cc1ccc(C=C2CC3C4CC5OC56CC(O)CCC6(C)C4CCC3(C)C2=O)cc1 (stereo not drawn) [Compound 23, (E)-16-(4-Methylbenzylidene)-3-hydroxy-5α ,6α -epoxy-10,13-dimethyl-1,3,4,7,8,9,10,11,12,13,15,16-dodecahydro-2H-cyclopenta[α ]phenanthren-17(14H)-one] |  | 14 | 12.7 | 13.3 | 28.3 | 18.7 | ≤ 50 | no relevant effects | higher than 75% | 19.3 |  |  |  | 
C[C@]12CC[C@H]3[C@@H](C[C@@H]4O[C@@]45CC(O)CC[C@]35C)[C@@H]1C/C(=C\c1cccc(F)c1F)C2=O (stereo partly drawn) [Compound 24, (E)-16-(2,3-Difluorobenzylidene)-3-hydroxy-5α ,6α -epoxy-10,13-dimethyl-1,3,4,7,8,9,10,11,12,13,15,16-dodecahydro-2H-cyclopenta[α ]phenanthren-17(14H)-one] |  |  | 18.9 | 56.5 | 33.4 |  |  |  |  |  |  |  |  | 
CC12CCC3C(CC4OC45CC(O)CCC35C)C1CC(=Cc1ccc(Br)cc1)C2=O (stereo not drawn) [Compound 25, (E)-16-(4-Bromobenzylidene)-3-hydroxy-5α ,6α -epoxy-10,13-dimethyl-1,3,4,7,8,9,10,11,12,13,15,16-dodecahydro-2H-cyclopenta[α ]phenanthren-17(14H)-one] |  | 14.5 | 15.4 | 15.3 | 16 | 14.5 | ≤ 50 | no relevant effects | higher than 75% | 36.9 | higher than 75% |  |  | 
CC12CCC3C(CC4OC45CC(O)CCC35C)C1CCC2C(=O)C=Cc1ccccc1 (stereo not drawn) [cD, 21E-benzylidene-5α,6α-epoxipregnenolone, reference compound] |  |  |  |  |  |  |  |  |  |  |  | did not affect cell viability | did not protect | 
(E)-16-(2,4-Dichlorobenzylidene)-3-hydroxy-5α ,6α -epoxy-10,13-dimethyl-1,3,4,7,8,9,10,11,12,13,15,16-dodecahydro-2H-cyclopenta[α ]phenanthren-17(14H)-one [Compound 22] |  | 44.5 | 16.8 | 14.4 | 15 | 14.5 | ≤ 50 | no relevant effects | higher than 75% | 15 | higher than 75% |  |  | ~0
(E)-16-Benzylidene-3-hydroxy-5α,6α-epoxy-10,13-dimethyl-1,3,4,7,8,9,10,11,12,13,15,16-dodecahydro-2H-cyclopenta[α]phenanthrene-17(14H)-one [Compound 15] |  | 17 | 9.21 | 33.1 | 39.5 | 42.7 | ≤ 50 |  |  | 27.4 | higher than 75% |  |  | 
(E)-16-[(5-Chlorothiophen-2-yl)methylene]-3-hydroxy-5α ,6α -epoxy-10,13-dimethyl-1,3,4,7,8,9,10,11,12,13,15,16-dodecahydro-2H-cyclopenta[α ]phenanthren-17(14H)-one [Compound 26] |  | 43.8 | 14.3 | 15.6 | 16.6 | 21.8 | ≤ 50 | no relevant effects | higher than 75% | 11.3 | higher than 75% |  |  | 
